Values of other authors in US6558710B1, “Topical zinc compositions and methods of use” (priority 1999, dated 2003).
Where two headings read alike, the source gives them in different places.

Columns and labels:
HIV = conditions: 1-1.5% zinc acetate, 2 hours, in vitro (U.S. Pat. No. 5,545,673)
[1] = solutions of 0.2-1%, applied circumorally

| Compound | dermal irritancy (1% aqueous) | dermal irritancy (20% suspension) | further results |
| --- | --- | --- | --- |
| CC(=O)[O-].CC(=O)[O-].[Zn+2] [zinc acetate] | – | – | HIV infectivity (HIV): reduced or completely eliminated; dermal irritancy (20% aqueous): slightly less irritant |
| [Cl-].[Cl-].[Zn+2] [zinc chloride] | severely irritant | – | – |
| [O]=[Zn] [zinc oxide] | – | not overtly irritant | stimulation of epidermal healing (in comparison to the more irritating and more water-soluble zinc salts): only marginally effective |
| O=S(=O)([O-])[O-].[Zn+2] [zinc sulfate] | not overtly irritant | – | irritation and side effects [1]: severe irritation, unpleasant dryness and stimulate the emetic reflex |
| zinc pyrithione | – | not overtly irritant | – |
